# Source: patent publication US11827628B2, “Compositions and methods for inhibition of the JAK pathway” (Rigel Pharmaceuticals, Inc., priority 2005, dated 2023)
# Where a name gives a salt, the structure may show the parent alone. Read-outs that look alike come from different tables or passages of the source.
# Test system: IL-4 stimulated expression of CD23 in human Ramos B cells (JAK-1 and JAK-3)
# Experiment: Assay for Ramos B-Cell Line Stimulated with IL-4 (CD23 upregulation, FACS)
# Assay type: cell-based
# Conditions: read-out: IC50, Example 41
# Text: One means of assaying for such inhibition is detection of the effect of the 2,4-substituted pyrimidinediamine compounds on the upregulation of downstream gene products. In the Ramos/IL4 assay, B-cells are stimulated with the cytokine Interleukin-4 (IL-4) leading to the activation of the JAK/Stat pathway through phosphorylation of the JAK family kinases, JAK1 and JAK3, which in turn phosphorylate and activate the transcription factor Stat-6. […] To study the effect of inhibitors (e.g., the 2,4-substituted pyrimindinediamine compounds described herein) on the JAK1 and JAK3 kinases, human Ramos B cells are stimulated with human IL-4. Twenty to 24 hours post stimulation, cells are stained for upregulation of CD23 and analyzed using flow cytometry (FACS). […] An exemplary assay of this type is described in greater detail in Example 41
# B-cells stimulated with cytokine Interleukin-4 (IL-4) activate the JAK/Stat pathway through phosphorylation of the JAK family kinases, JAK-1 and JAK-3, which in turn phosphorylate and activate the transcription factor Stat-6. […] To study the effect of inhibitors on the JAK family kinases, human Ramos B cells are stimulated with human IL-4.
# The Ramos B-cell line was acquired from ATCC (ATCC Catalog No. CRL-1596). The cells were cultured in RPMI 1640 (Cellgro, MediaTech, Inc., Herndon, VA, Cat No. 10-040-CM) with 10% fetal bovine serum (FBS), heat inactivated (JRH Biosciences, Inc, Lenexa, Kansas, Cat No. 12106-500M) according to ATCC propagation protocol. Cells were maintained at a density of 3.5×10^5. The day before the experiment, Ramos B-cells were diluted to 3.5×10^5 cells/mL to ensure that they were in a logarithmic growth phase.
# Cells were spun down and suspended in RPMI with 5% serum. 5×10^4 cells were used per point in a 96-well tissue culture plate. Cells were pre-incubated with compound or DMSO (Sigma-Aldrich, St. Louis, MO, Cat No. D2650) vehicle control for 1 hour in a 37° C. incubator. Cells were then stimulated with IL-4 (Peprotech Inc., Rocky Hill, NJ, Cat No. 200-04) for a final concentration of 50 units/mL for 20-24 hours. Cells were then spun down and stained with anti-CD23-PE(BD Pharmingen, San Diego, CA, Cat No. 555711) and analyzed by FACS. Detection was performed using a BD LSR I System Flow Cytometer, purchased from Becton Dickinson Biosciences of San Jose, California The IC50 calculated based on the results of this assay are provided in TABLE XII.
# [1] = Homo sapiens, Ramos, Ramos B-cell line stimulated with IL-4, CD23 expression by FACS
# [2] = Ramos B cells stimulated with IL-4, CD23 expression by FACS
# [3] = Ramos B-cell line stimulated with IL-4, CD23 expression by FACS
# [4] = Homo sapiens, Ramos, Ramos B cells stimulated with IL-4, CD23 expression by FACS
molecule,measurement,setting,value
"COc1cc(Nc2nc(Nc3ccc(S(N)(=O)=O)cc3)ncc2F)ccc1OCC(N)=O [Compound I-103, N4-(4-Aminocarbonylmethoxy-3-methoxyphenyl)-N2-(4-aminosulfonylphenyl)-5-fluoro-2,4-pyrimidinediamine]",IC50,[1],1250 nM
"N2-(3-aminosulfonyl-4-methyl)phenyl-5-fluoro-N4-(4-thiomethylcarbonyl)phenyl-2,4-pyrimidinediamine [VI-95]",IC50,[2],1000 nM
CCC(=O)NS(=O)(=O)c1cccc(Nc2ncc(F)c(Nc3ccc(OCc4cc(C)on4)cc3)n2)c1 [Compound I-236],IC50,[3],1980 nM
"Cc1ccc(Nc2ncc(F)c(NC3CNCCC3C)n2)cc1S(N)(=O)=O (racemic) [VII-4, Racemic N2-(3-aminosulfonyl-4-methylphenyl)-5-fluoro-N4-(4-methylpiperidin-3-yl)-2,4-pyrimidinediamine]",IC50,[2],2490 nM
"NC(=O)COc1cccc(Nc2nc(Nc3ccc(S(N)(=O)=O)cc3)ncc2F)c1 [Compound I-91, N4-(3-Aminocarbonylmethoxy)phenyl-N2-(4-aminosulfonyl)phenyl-5-fluoro-2,4-pyrimidinediamine]",IC50,[3],2030 nM
"Cc1ccc(Nc2ncc(F)c(Nc3ccc(CCNC(N)=O)cc3)n2)cc1S(N)(=O)=O [VI-71, N4-{4-[2-(Aminocarbonylamino)ethyl]phenyl}-N2-(3-aminosulfonyl-4-methylphenyl)-5-fluoro-2,4-pyrimidinediamine]",IC50,[4],1070 nM
"CN1CCN(S(=O)(=O)c2cccc(Nc3ncc(F)c(Nc4ccc(OCC(N)=O)cc4)n3)c2)CC1 [Compound I-112, N4-(4-Aminocarbonylmethoxy)phenyl-5-fluoro-N2-[3-(4-methylpiperazin-1-yl)sulfonyl]phenyl-2,4-pyrimidinediamine]",IC50,[3],2360 nM
"NC(=O)c1c[nH]c2cc(Nc3nc(Nc4ccc(Cl)c(S(N)(=O)=O)c4)ncc3F)ccc12 [IX-10, N4-[3-(Aminocarbonyl)-1H-indol-6-yl]-N2-(3-aminosulfonyl-4-chlorophenyl)-5-fluoro-2,4-pyrimidinediamine]",IC50,[4],6410 nM
"Cc1cc(COc2ccc(Nc3nc(Nc4cccc(S(=O)(=O)NCc5oc(=O)oc5C(C)(C)C)c4)ncc3F)cc2)no1 [Compound I-250, N2-{3-[(N-5-t-Butyl-1,3-dioxolene-2-one-4-yl)methylene]aminosulfonylphenyl}-5-fluoro-N4-[4-(5-methylisoxazol-3-yl)methyleneoxyphenyl]-2,4-pyrimidinediamine]",IC50,[3],673 nM
"NC(=O)CCc1ccc(Nc2nc(Nc3ccc(S(N)(=O)=O)cc3)ncc2F)cc1 [III-49, N4-[4-(2-Aminocarboxylethylene)phenyl]-N2-(4-aminosulfonylphenyl)-5-fluoro-2,4-pyrimidinediamine]",IC50,[3],178 nM
"CN(C)C(=O)COc1ccc(Nc2nc(Nc3ccc(Cl)c(S(N)(=O)=O)c3)ncc2F)cc1Cl [Compound I-140, N2-(3-Aminosulfonyl-4-chlorophenyl)-N4-(3-chloro-4-dimethylaminocarbonylmethoxyphenyl)-5-fluoro-2,4-pyrimidinediamine]",IC50,[1],388 nM
"C#CCNS(=O)(=O)c1cccc(Nc2nc(Nc3ccc(S(N)(=O)=O)cc3)ncc2F)c1 [VI-80, N2-(4-Aminosulfonylphenyl)-5-fluoro-N4-[3-(prop-2-ynylaminosulfonyl)phenyl]-2,4-pyrimidinediamine]",IC50,[4],360 nM
"CNS(=O)(=O)c1cc(Nc2ncc(F)c(NCCc3ccc(-n4ccnc4)cc3)n2)ccc1C [III-89, 5-Fluoro-N2-[3-(N-methylaminosulfony)-4-methylphenyl]-N4-[4-(1-imidazolyl)phenethyl]-2,4-pyrimidinediamine]",IC50,[2],115 nM
"CCC(=O)NS(=O)(=O)c1cccc(Nc2ncc(F)c(Nc3ccc(Cc4ccncc4)cc3)n2)c1 [III-69, 5-Fluoro-N4-[4-(4-pyridinylmethyl)phenyl]-N2-[(3-N-propanamido)sulfonylphenyl)]-2,4-pyrimidinediamine sodium salt]",IC50,"Ramos B-cell line stimulated with IL-4, CD23 expression by FACS, sodium salt",3320 nM
